Experimental data reported in patent EP0715517B1, “ESTRENE STEROIDS AS NEU[…] CHANGE IN HUMAN HY[…] AND RELATED PHARMACEUTICAL COMPOSITIONS” (priority 1993, dated 1994).
“Also recorded” adds a separate entry of the source.

Assays:
VNO [1] = experiment: Electrodermal activity (EDA) after VNO stimulation (Example 25); format: in vivo, human; conditions: p<0.01, n = 30; for decrease in EDA: female subjects; for skin resistance (electrodermal activity, EDA): male subjects, Fig. 6C
Method: (§1) Cortical evoked activity was induced by VNO stimulation with vomeropherins, and olfactory stimulation with odorants delivered in 300 ms air pulses. It was recorded using standard electroencephalographic (EEG) electrodes placed at positions Cz-A1 and Tz-A1 of the international […] system; the ground electrode was placed on the mastoid process. Electrodermal activity (EDA) was recorded using standard 8 mm silver electrodes in contact with palmar skin of the medial and ring fingers respectively, through a conductive gel interface. Skin temperature (ST) was recorded by a small (1.0 mm) thermistor probe placed in the right ear lobe. Peripheral arterial pulse (PAP) was monitored with a plethysmograph attached to the tip of the index finger. Respiratory frequency (RF) was measured with an adjustable strain gauge placed around the lower thorax. All electrical signals were DC amplified, digitized (MP-100, Biopac Systems) and continuously monitored utilizing a computer. Statistical Analysis: EVGs or EOGS, peak-to-peak changes and frequency changes of other parameters were measured and statistically analyzed. The significance of the results was determined by either using paired t-tests or analysis of variance (ANOVA). […] Recordings of the EVG were performed on 30 men and 30 women (ages 20 to 45). Vomeropherins were diluted and applied as 1 second pulses to the VNO with […] intervals between pulses when questioned, the subjects were not able to "smell" or otherwise consciously detect any of the vomeropherins.

VNO [2] = experiment: Cortical evoked activity (EEG, alpha cortical activity) after VNO stimulation (Example 25); format: in vivo, human
Method: as §1
[…] […] Synchronization of the EEG was sustained for 1.5 to 2.7 minutes after application of a single pulse of active substance.

VNO [3] = experiment: Skin temperature (ST) after VNO stimulation (Example 25); format: in vivo, human
Method: as §1

VNO [4] = experiment: Electro-vomeronasogram (EVG) (Example 25); format: in vivo, human; conditions: for EVG response in female subjects (in words): 30 female subjects (ages 20 - 45), Fig. 6B; for EVG response in female subjects (in words) / EVG response in the male VNO (in words) / EVG average response (mean): 100 fmoles; for EVG response in the male VNO (in words): male subjects, Fig. 6A and Fig. 7; for EVG average response (mean): male subjects (ages 20 to 38), 1 second pulses, p<0.01, Fig. 6A; for EVG response to olfactants delivered to the VNO: male and female subjects, 400 fmoles, Fig. 7B
Method: The following electrophysiological studies were performed in 60 clinically normal human volunteers of both sexes (30 male and 30 female) whose ages ranged from 20 to 45 years. No anesthetics were used, and female subjects were excluded if pregnant.
(§2) The stimulation and recording system consists of a "multifunctional miniprobe" described elsewhere (Monti-Bloch, L. and Grosser, B.l. (1991) "Effect of putative pheromones on the electrical activity of the human vomeronasal organ and olfactory epithelium," J. Steroid Biochem. Molec. Biol. 39:573-582.). The recording electrode is a 0.3 mm silver ball attached to a small (0.1 mm) silver wire insulated with Teflon© the surface of the electrode is first treated to produce a silver chloride interface, and is then covered with gelatin It is positioned within a small caliber Teflon© catheter (dia = […]) such that the tip of the electrode protrudes approximately 2 mm. The Teflon© catheter is 10 cm in length and constitutes the terminal extension for a multichannel delivery system which delivers a continuous air stream carrying discreet pulses of chemosensory stimuli. The air stream first passes into a small chamber and is bubbled through a solution containing either a vomeropherin or an olfactant in a diluent or the diluent alone. A solenoid is used to rapidly redirect the air stream from the chamber to a route which bypasses the chamber. This creates a discreet pulse of stimulant in the air stream. A second, outer Teflon® tube with a diameter of 2 mm surrounds the catheter-electrode assemblage, and its central end is connected to an aspirator that provides continuous suction of 3ml/s. This concentric arrangement of the outer suction tube allows the emitted chemosensory stimuli to be localized to an area we call a "minifield" (approx. dia = 1 mm), and it avoids diffusion of substances either to the area outside the intended stimulation site or into the respiratory system. The entire stimulating and recording assemblage may be positioned either on the neurosensory epithelium within the VNO, or on the surface of the olfactory or respiratory epithelium. Electro-vomeronasogram (EVG): Recordings are carried out in a quiet room with the subject supine; the multifunctional miniprobe is initially stabilized within the nasal cavity using a nasal retractor placed in the vestibule. Reference and ground electrodes consist of silver discs (8 mm), both of which are positioned on the glabella.
The entrance to the VNO, or vomeronasal pit, is identified by first dilating the nasal aperture and vestibule. A 6x magnifying binocular loupe with halogen illumination is then used to introduce the tip of the Teflon® catheter and recording electrode assemblage into the VNO opening where it is stabilized at an approximate depth of 1 mm within the vomeronasal passage. Optimal placement of the recording electrode is signaled after testing for an adequate depolarization in response to a test substance.
Electrical signals from the recording electrode are fed to a DC amplifier after which they are digitized, computer monitored, and stored. The peak-to-peak amplitude of the signals is measured, and the area under the depolarization wave is integrated, while continuously monitoring the signal both on the computer screen and on a digital oscilloscope. Artifacts produced by respiratory movements are deleted by training the subjects to practice mouth breathing with velopharyngeal closure. Chemosensory Stimulants: Olfactory test substances are cineole, and 1-carvone; vomeropherins are A, B, C, E and F. (Vomeropherins were supplied by Pherin Corporation, Menlo Park, California), Samples of vomeropherins In concentration of 25-800 fmoles are delivered in the continuous air stream for durations from 300 milliseconds to 1 second. Usually, intervals of 3 to 5 minutes separated each series of short test pulses. […]

[5] = system: olfactory epithelium (OE); experiment: Electro-olfactgram (EOG) (Example 25); format: in vivo, human; conditions: 20 subjects (10 males, 10 females); 200 fmoles vomeropherins, 400 fmoles olfactants; one second pulses; Fig. 7A
Text: as §2
Electrical signals from the recording electrode are fed to a DC amplifier after which they are digitized, computer monitored, and stored. The peak-to-peak amplitude of the signals is measured, and the area under the depolarization wave is integrated, while continuously monitoring the signal both on the computer screen and on a digital oscilloscope. […]
Effects of Vomeropherins on the EOG: The summated receptor potential from the olfactory epithelium (OE) was recorded in 20 subjects: 10 males and 10 females. […]

VNO [6] = experiment: Autonomic responses to Estrene stimulation of the VNO (Example 22); format: in vivo, human; conditions: 40 male subjects, 1 second pulse
Method: Various autonomic parameters were monitored while 1,3,5(10), 16-Estratetraen-3-yl-acetate was administered to 40 male subjects using the procedure described in Example 20. Propylene glycol was also administered as a control. The ligand was administered as a 1 second pulse. The change in autonomic function was first noted within 2 seconds and lasted for up to 45 seconds.

[7] = system: human vomeronasal organ (VNO); experiment: Local electrical potentials recorded from the VNO after localized gaseous stimulation (Example 20); format: in vivo; conditions: for VNO response, males compared with females (sexually dimorphic): Fig. 2B; for VNO response: males, about 25 pg of steroid-ligand puffed 1 to 2 seconds, response measured in mV x s, Fig. 2A
Method: A non-invasive method has been employed to record local electrical potentials from the human vomeronasal organ (VNO) and from the olfactory epithelium (OE). Localized gaseous stimulation was applied to both nasal structures at different instances using specially designed catheter/electrodes connected to a multichannel drug delivery system.
The study was performed on ten clinically normal (screened) volunteers - 2 males and 8 females, ranging in age from 18 to 85 years. The studies were conducted without general or local anesthetics.
The catheter/electrodes were designed to deliver a localized stimulus and simultaneously record the response. In the case of VNO recording, the right nasal fosa of the subject was explored using a nasoscope (nasal specula) and the vomeronasal opening was localized close to the intersection of the anterior edge of the vomer and the nasal floor. The catheter/electrode was gently driven through the VNO-opening and the electrode tip placed in the organ's lumen at 1 to 3 mm from the opening. The nasoscope was then removed. In the case of the OE, recording the procedure was similar except the positioning of the catheter/electrode was gently placed deep in the lateral part of the medial nasal duct, reaching the olfactory mucosa.
Localized gaseous stimulation was done through the catheter/electrode. A constant stream of clean, nonodorous, humidified air at room temperature was continuously passed through a channel of the stimulating system. The stimulating ligand substances were diluted in propylene glycol, mixed with the humidified air, and puffed for from 1 to 2 seconds through the catheter/electrode. It is estimated that this administration provides about 25 pg of steroid-ligand to the nasal cavity.

[8] = females, single pulse (200 fmoles), Fig. 6F
[9] = 30 female subjects, p<0.01, compared to A and C, Fig. 6H
[10] = males, 200 fmoles, air pulses 300 ms to 1 sec, Fig. 6E
[11] = 30 male subjects, p<0.01, Fig. 6G

In the case of `C[C@@]12C=CC[C@H]1[C@@H]1CCC3=C[C@@H](O)CC[C@]3(C)[C@H]1CC2` [F, Androsta-4,16-dien-3β-ol], the “decrease in EDA” value (VNO [1]) is reported as “greater decrease in EDA than A or C”, the alpha cortical activity (VNO [2]; [8]) is reported as “increased alpha cortical” and the “skin temperature (ST)” value (VNO [3]; [9]) is reported as “significant increase in skin temperature”. The “EVG response in female subjects (in words)” value (VNO [4]) was “produced the most significant differences within the group” and the “EVG response in the male VNO (in words)” value (VNO [4]) was “significantly reduced responses in the male VNO”.

With `C[C@@]12C=CC[C@H]1[C@@H]1CCC3=C[C@H](O)CC[C@]3(C)[C@H]1CC2` [E, Androsta-4,16-dien-3α-ol] the “EOG local response of the OE (in words)” value [5] was “stronger olfactory effect than does F; also recorded: significant (p<0.01) local response” and the “EVG response in female subjects (in words)” value (VNO [4]) was “does not stimulate the VNO in female subjects”.

`C[C@@]12C=CC[C@H]1[C@@H]1CCC3=CC(=O)CC[C@]3(C)[C@H]1CC2` [B, Androsta-4,16-dien-3-one] was tested, and the “decrease in EDA” value (VNO [1]) was “greater decrease in EDA than A or C”, the “EOG local response of the OE (in words)” value [5] was “the only vomeropherin having significant effect in the OE; also recorded: significant (p<0.01) local response” and the alpha cortical activity (VNO [2]; [8]) was “increased alpha cortical”. For the same compound, the “skin temperature (ST)” value (VNO [3]; [9]) was “significant increase in skin temperature” and the “EVG response in the male VNO (in words)” value (VNO [4]) was “significantly reduced responses in the male VNO”.

With `CC(=O)Oc1ccc2c(c1)CC[C@@H]1[C@@H]2CC[C@]2(C)C=CC[C@@H]12` [A, 1,3, 5(10),16-Estratetraen-3-yl acetate] the “skin resistance (electrodermal activity, EDA)” value (VNO [1]) was “decreased skin resistance”, the alpha cortical activity (VNO [2]; [10]) was “significantly increased alpha cortical activity; also recorded: strongest effect” and the “latency of increase in alpha cortical activity” value (VNO [2]; males, 200 fmoles, Fig. 6E) was 270 to 380 ms. For the same compound, the “skin temperature (ST)” value (VNO [3]; [11]) was “significant increase in skin temperature”, the “EVG response in female subjects (in words)” value (VNO [4]) was “small effect that was significantly different from F” and the “EVG average response (mean)” value (VNO [4]) was 11.4 mV. The “change in autonomic function first noted (onset)” value (VNO [6]) was at most 2 s, the “change in autonomic function lasted (duration)” value (VNO [6]) was “up to 45 seconds” and the “integrated receptor potential in the VNO” value (VNO [6]; compared to propylene glycol control, Fig. 4A) was “significant change”. For the same compound, the galvanic skin response (VNO [6]; compared to propylene glycol control, Fig. 4B) was “significant change”.

For `C=C(C)[C@@H]1CC=C(C)C(=O)C1` [1-carvone, reference compound], the “EOG local response of the OE (in words)” value [5] was “strong response in both men and women; also recorded: significant (p<0.01) local response” and the “EVG response to olfactants delivered to the VNO” value (VNO [4]) was “only a minor local response in the VNO; also recorded: do not induce a significant EVG response”.

In the case of `C[C@@]12C=CC[C@H]1[C@@H]1CCc3cc(O)ccc3[C@H]1CC2` [C, 1,3,5(10),16-Estratetraen-3-ol], the “skin resistance (electrodermal activity, EDA)” value (VNO [1]) is reported as “decreased skin resistance”, the “VNO response, males compared with females (sexually dimorphic)” value [7] is reported as “approximately four times as strong in males as it is in females” and the VNO response [7] is reported as “significantly stronger VNO response in males than do the other compounds tested”. The alpha cortical activity (VNO [2]; [10]) was “significantly increased alpha cortical activity”, the “latency of increase in alpha cortical activity” value (VNO [2]; males, 200 fmoles, Fig. 6E) was 270 to 380 ms and the “skin temperature (ST)” value (VNO [3]; [11]) was “significant increase in skin temperature”. For the same compound, the “EVG average response (mean)” value (VNO [4]) was 6.4 mV.

In the case of `CC12CCC(CC1)C(C)(C)O2` [cineole, reference compound], the “EOG local response of the OE (in words)” value [5] is reported as “strong response in both men and women; also recorded: significant (p<0.01) local response” and the “EVG response to olfactants delivered to the VNO” value (VNO [4]) is reported as “only a minor local response in the VNO; also recorded: do not induce a significant EVG response”.

`C[C@]12CC[C@@H]3c4ccc(O)cc4CC[C@H]3[C@@H]1C[C@@H](O)[C@@H]2O` [1,3,5(10)-Estratrien-3, 16α,17δ-triol] was tested, and the “VNO response, males compared with females (sexually dimorphic)” value [7] was “approximately four times as strong in males as it is in females” and the VNO response [7] was “strong VNO response”.
